We go through three compounds from patent US8906888B2, “Low-calcemic 16,23-diene 25-oxime analogs of 1α,25-dihydroxy vitamin D3” (Cytochroma Inc., priority 2005, dated 2014).

By IC50 is commonly meant the concentration at which inhibition is half-maximal.

In data set [1] the test system is CYP24 mRNA. Briefly: CYP24 transcriptional activation assay in U-937 cells (real time PCR). Type of data set: cell-based, human. The settings on record: six hours, normalized to GAPDH, 100 nM calcitriol set to 100%. Here is the method: 1α,25(OH)2D3 1 mM reconstituted in isopropanol
• Sodium pyruvate • Non-essential amino acids • HEPES • 10% fetal bovine serum Phorbol 12-myristate 13-acetate (PMA) 24-well plate Isopropanol TRIzol® reagent (Invitrogen) Chloroform Ethanol Diethylpyrocarbonate treated dH2O Thermoscript™ RT-PCR System kit (Invitrogen) Human CYP24 TaqMan® Probe (Applied Biosystems Inc) Human GAPDH TaqMan® Probe (Applied Biosystems Inc) TaqMan® Universal Master Mix Probe (Applied Biosystems Inc) (ii) Procedure:
1. Cell Culture, Stimulation and Plating • Cultured U-937 cells in 4+RPMI media to a level of ≈80% confluence. Pelleted cells by centrifugation and resuspended to a concentration of 5×10^5 cells per 1 ml media. Treated U-937 cells with a final concentration of PMA of 20 ng/ml. To each well, of a 24-well plate, added 1 ml of cell suspension and incubated overnight at 37° C., in a humidified atmosphere containing 5% CO2, for adherence of cells to the wells.
2. Cell Treatment and TRIzol® Addition • Changed the media with 1 ml of fresh 4+RPMI media. Added 1 μl of the working solutions of 1, 10, and 100 μM of the compound being tested, in triplicate. Added 1 μl of isopropanol as a control, in triplicate. Incubated the cells for six hours at 37° C., in a humidified atmosphere containing 5% CO2, aspirated off the media and then added 1 ml of TRIzol® reagent. Transferred TRIzol® with cell lysate to a 1.7 ml microcentrifuge tube and stored at −80° C.
3. […] Determined the concentration of RNA using a spectrophotometer to measure the optical density of each sample, at a wavelength of 260 nm. […]
4. CYP24/GAPDH Real Time PCR • Determined the amount of CYP24 and GAPDH mRNA present in each sample using commercial TaqMan® probes, from Applied Biosystems Inc. (Foster City, Calif.). Detected both genes in the same 20 μl reaction, using an ABI PRISM 96-well optical reaction plate and cycle 50 times using an ABI Prism 7000 Sequence Detection System® (ABI). […]

For data set [2], the system named is OVCAR-3 cells. The data set can be described thus: [3H]-Thymidine proliferation assay with OVCAR-3 cells. Type of data set: cell-based. As to conditions: ovarian cancer cells, 6 days, 3H-thymidine incorporation. Here is the method:
1. Preparation of Suspension • When OVCAR-3 cells were ˜50% confluent, aspirated media. Washed cells with 1×PBS. Trypsinized with trypsin-EDTA, collected cells from the tissue culture flask, centrifuged (200×g, 5 min) and resuspended in media.
2. Cell Plating. • Counted the cells and adjusted the cell density to 11.4×10^3 to provide 2000 cells in 175 μl (for 1 well). Distributed cell suspension into a 96 well plates at 175 μl (2000 cells) per well. Incubated plate for 24 h at 37° C. in a humidified atmosphere plus 5% CO2. • Substrate addition. • Added 25 μl of compound (final concentration 10^−7 M, 5×10^−8 M 10^−8 M, 5×10^−9 M, 10^−9 M, 10^−10M or 0 M) into each designated well. Incubated plates for 6 days without changing media and drugs at 37° C. in a humidified atmosphere plus 5% CO2.
3. [^3H]-Thymidine incorporation • Added ^3H-thymidine at 0.02 μCi per well and incubated at 37° C. in a humidified atmosphere plus 5% CO2 for 6 h.
4. Plate Harvesting. • Aspirated all media and washed cells with 1×PBS. Trypsinized cells for 30 min at 37° C. in a humidified atmosphere plus 5% CO2. Harvested cells onto a 96 well filter plate (Millipore) using a Tomtec Cell Harvestor, according to manufacturers instructions.
5. Scintillation Counting. • Added 25 μl of scintillation fluid per well. Counted the plate using a scintillation counter. Results: Compounds (20R)-I(a), (20R)-I(c) and (20R)-I(e) all inhibited the proliferation of OVCAR-3 cells.

In data set [3] the target is T1, CYP24 (Homo sapiens, UniProt Q07973).
T1 construct: expressed in transfected cells; host or cells: V79-CYP24 cells (V79 = Chinese hamster lung fibroblasts, own knowledge; kept under hygromycin selection)
T1 sequence (Q07973 36-514): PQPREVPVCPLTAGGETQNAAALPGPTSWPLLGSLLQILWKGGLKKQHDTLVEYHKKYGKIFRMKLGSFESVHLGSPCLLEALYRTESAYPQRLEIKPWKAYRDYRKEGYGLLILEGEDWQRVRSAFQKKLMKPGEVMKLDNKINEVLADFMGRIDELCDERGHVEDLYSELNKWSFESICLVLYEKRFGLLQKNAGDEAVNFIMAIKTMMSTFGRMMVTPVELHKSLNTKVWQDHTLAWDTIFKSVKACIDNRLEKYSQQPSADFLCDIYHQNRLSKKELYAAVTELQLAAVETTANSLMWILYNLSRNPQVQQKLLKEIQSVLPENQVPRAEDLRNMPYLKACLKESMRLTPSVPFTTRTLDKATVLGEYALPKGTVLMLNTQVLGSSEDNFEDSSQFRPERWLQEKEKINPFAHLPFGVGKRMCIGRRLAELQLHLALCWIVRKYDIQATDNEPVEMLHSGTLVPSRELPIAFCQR
The data set can be described thus: CYP24 enzyme assay (V79-CYP24 cells, 3H-1α,25(OH)2D3 substrate). Format: cell-based. As to conditions: substrate 20 nM, 2 hours, read-out: IC50 in the inhibition of CYP24. Here is the method: (i) Material and Reagents:
Substrates (1 mM) reconstituted in isopropanol
1. Preparation of Cell Suspension • On the day of the assay, washed the monolayer of V79-CYP24 cells once with 1×PBS buffer and then trypsinized for 5 min at room temperature (approx. 22° C.). Added 1×PBS. Collected cells into tube, centrifuged cells (500×g, 5 min) and resuspended in DMEM+1% BSA media. Counted cells and adjusted density to 2 million/1 mL.
2. Cell Plating • Added 80 μl of cell suspension to appropriately labeled wells of a 96-well plate. Incubated plate for 45 minutes at 37° C. in a humidified atmosphere containing 5% CO2.
3. Compound Addition • Added 10 μl of inhibitor (10^−6 to 10^−10 M) and then after 35-40 min added 10 μl of substrate [^3H-1β]-1α,25(OH)2D3 (20 nM) for 2 hours at 37° C. in a humidified atmosphere containing 5% CO2. Both inhibitor and substrate were prepared in DMEM with 1% BSA media.
4. Lipid Extraction and Counting • Added 250 μl of methanol to stop the reaction and mixed. Added […] of dichloromethane, covered block and vortexed. Added […] of dichloromethane again, added […] of saturated KCl and vortexed. Centrifuged at 3000 rpm for 30 min. Triplicate 100 μl aliquots of aqueous fraction were mixed with 200 μl of scintillation fluid and the radioactivity was measured using a scintillation counter. All values were normalized for background. (iii) Results: • 1. […] (iv) Reference: 1. PCT Patent Application Serial No. PCT/CA03/00620

A short description of data set [4]: Standard hypercalcemia assay (urine calcium, oral daily dosing for one week). Type of data set: in vivo. The settings on record: rat.

Molecules are shown by their SMILES.

For the compound `C=C1/C(=C\C=C2/CCC[C@]3(C)C([C@H](C)C/C=C/C(=N\OC)C(F)(F)F)=CC[C@@H]23)C[C@@H](O)C[C@@H]1O` [(20R)-I(a)], in data set [1], the “CYP24 mRNA induction, activity as % of that for calcitriol at 100 nM” value turned out to be 54%. Also, the “Inhibition of OVCAR-3 cell proliferation” value in data set [2] is listed as “inhibited”. Moreover, the IC50 in data set [3] was found to be 488 nM.
In the case of `C=C1/C(=C\C=C2/CCC[C@]3(C)C([C@H](C)C/C=C/C(=N\OC)C4CC4)=CC[C@@H]23)C[C@@H](O)C[C@@H]1O` [(20R)-I(c)], the “CYP24 mRNA induction, activity as % of that for calcitriol at 100 nM” value in data set [1] came out at 30%. In addition, the “Inhibition of OVCAR-3 cell proliferation” value in data set [2] was “inhibited”. In data set [3], the IC50 is 85.9 nM.
As to `C=C1/C(=C\C=C2/CCC[C@]3(C)[C@@H]([C@H](C)CCCC(C)(C)O)CC[C@@H]23)C[C@@H](O)C[C@@H]1O` [calcitriol, 1α,25-Dihydroxy vitamin D3], in data set [4], the “Levels of calcium in the urine” value was “significant increase”.
